Assay results reported in ChEMBL document CHEMBL1144316, “Synthesis and biological activity evaluation of lignan lactones derived from (-)-cubebin” (2005).

Test system: Rattus norvegicus
Experiment: Percentage inhibition of edema formation in rat after 3 hours of treatment with the compound at a dosage of 30 mg/Kg
Format: functional

## Nc1cc2c(cc1C[C@@H]1COC(=O)[C@H]1Cc1cc3c(cc1N)OCO3)OCO2
  inhibition in vivo at 30 mg/kg: 82%

## O=C1OC[C@@H](Cc2cc3c(cc2[N+](=O)[O-])OCO3)[C@@H]1Cc1cc2c(cc1[N+](=O)[O-])OCO2
  inhibition in vivo at 30 mg/kg: 54%

## O=C1OC[C@@H](Cc2ccc3c(c2)OCO3)[C@@H]1Cc1ccc2c(c1)OCO2
  inhibition in vivo at 30 mg/kg: 63%

## OC1OC[C@@H](Cc2ccc3c(c2)OCO3)[C@@H]1Cc1ccc2c(c1)OCO2 (some centres undefined)
  inhibition in vivo at 30 mg/kg: 53%
